The text below walks through data of ChEMBL document CHEMBL1151899, “Oleanane-type isomeric triterpenoids from Barringtonia racemosa” (J Nat Prod, 2009).

Assay [1] has as its system HeLa. Briefly: Cytotoxicity against human HeLa cells by MTT assay. Format: functional, cell-based.
Assay [2] in a line: Cytotoxicity against mouse P388D1 cells by MTT assay. Format: functional, cell-based.

pIC50: −log10 of the molar value.

Regarding `CC1(C)CC[C@]2(C(=O)O)CC[C@]3(C)C(=CC[C@@H]4[C@@]5(C)C[C@@H](O)[C@H](O)[C@@](C)(C(=O)O)[C@@H]5CC[C@]43C)[C@@H]2[C@@H]1O` [BARTOGENIC ACID], the pIC50 in assay [1] and in assay [2] was < 4.30 throughout.

For the molecule `CC[C@H](/C=C/[C@@H](C)[C@H]1CC[C@H]2[C@@H]3CC=C4C[C@@H](O)CC[C@]4(C)[C@H]3CC[C@]12C)C(C)C` [STIGMASTEROL], the pIC50 in assay [1] and in assay [2] was < 4.30 throughout.

For `CC1(C)C[C@H]2C3=CC[C@@H]4[C@@]5(C)CC[C@H](O)C(C)(C)[C@@H]5CC[C@@]4(C)[C@]3(C)C[C@@H](O)[C@@]2(CO)[C@@H](O)[C@@H]1O` [BARRINGTOGENOL C], the pIC50 in assay [1] and in assay [2] was < 4.30 each time.

Turning to `CCC(C)C(=O)OC[C@@]12[C@H](O)[C@H](O)[C@]3(C)C(=CC[C@@H]4[C@@]5(C)CC[C@H](O)C(C)(C)[C@@H]5CC[C@]43C)[C@@H]1CC(C)(C)[C@@H](O)[C@@H]2OC(C)=O` (stereo partly drawn) [RACEMOSOL A], the pIC50 in assay [1] and in assay [2] was < 4.30 in each case.

As for `CCC(C)C(=O)O[C@H]1[C@H](OC(C)=O)C(C)(C)C[C@H]2C3=CC[C@@H]4[C@@]5(C)CC[C@H](O)C(C)(C)[C@@H]5CC[C@@]4(C)[C@]3(C)[C@@H](O)[C@@H](O)[C@]21CO` (stereo partly drawn) [ISORACEMOSOL A], the pIC50 in assay [1] and in assay [2] was < 4.30 in each case.
